Laboratory results reported in PMC6739813, “Structures of the Neisseria meningitides methionine‐binding protein MetQ in substrate‐free form and bound to L‐ and D‐methionine isomers” (Protein Science : A Publication of the Protein Society, 2019).

Experiments:
[1] = target: T1, MetQ (methionine-binding protein) (Neisseria meningitidis, UniProt Q9JPG4); assay: ITC; crystal structure at […] Å
T1 construct: gene gna1946

[2] = target: T2, MetQ (methionine-binding protein) (Neisseria meningitidis, UniProt Q9JPG4, N238A); assay: ITC
T2 construct: gene gna1946
T2 sequence (Q9JPG4 43-287 N238A): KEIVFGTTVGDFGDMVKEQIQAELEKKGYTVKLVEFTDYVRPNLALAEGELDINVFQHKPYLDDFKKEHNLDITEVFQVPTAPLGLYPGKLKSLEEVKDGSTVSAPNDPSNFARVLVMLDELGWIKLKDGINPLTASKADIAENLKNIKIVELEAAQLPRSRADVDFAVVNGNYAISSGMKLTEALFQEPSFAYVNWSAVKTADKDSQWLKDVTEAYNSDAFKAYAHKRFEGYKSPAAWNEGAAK

[3] = target: T1, MetQ (methionine-binding protein); assay: ITC (displacement titration with D-methionine); crystal structure at […] Å

| Structure (SMILES) | Kd [1] [µM] | Kd [2] [µM] | Kd [3] [µM] |
| --- | --- | --- | --- |
| CSCC[C@@H](N)C(=O)O [D-methionine] | 3.5 | 240 | – |
| CSCC[C@H](N)C(=O)O [L-methionine] | – | 78 | 0.0002 |
